Measured values taken from patent US7745619B2, “Vinca derivatives” (priority 2003, dated 2010).

What was measured:
HeLa S-3 cells = assay: HeLa GI50 determination (SRB growth inhibition); type: cell-based, human; conditions: Homo sapiens, HeLa S3, 48 h, read-out: HeLa Cells GI50 (nM)
How it was run: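 Cells plated at 2×10^4/well; day-0 plate TCA-fixed, test compounds added at 10-fold dilutions for 2 days. SRB staining, absorbance at 490 nm; GI = 100×(T−T0)/(C−T0), GI50 from growth inhibition vs. concentration plots.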

BT-549 = assay: NCI 60-cell line growth inhibition assay: BT-549; type: cell-based; conditions: Homo sapiens
NCI/ADR-RES = type: cell-based; conditions: Homo sapiens
T-47D = assay: NCI 60-cell line growth inhibition assay: T-47D; type: cell-based; conditions: Homo sapiens, T47D, Breast
From the text: (§1) The following data in Table 4 summarize the growth inhibition properties of several compounds of the present invention against 60-human transformed cell lines.

SF-539 = assay: NCI 60-cell line growth inhibition assay: SF-539; type: cell-based; conditions: Homo sapiens
SNB-19 = assay: NCI 60-cell line growth inhibition assay: SNB-19; type: cell-based; conditions: Homo sapiens
SNB-75 = assay: NCI 60-cell line growth inhibition assay: SNB-75; type: cell-based; conditions: Homo sapiens
SW-620 = assay: NCI 60-cell line growth inhibition assay: SW-620; type: cell-based; conditions: Homo sapiens
RPMI-8226 = assay: NCI 60-cell line growth inhibition assay: RPMI-8226; type: cell-based, human
From the text: as §1

M14 = assay: NCI 60-cell line growth inhibition assay: M14; type: cell-based; conditions: Homo sapiens
MALME-3M = assay: NCI 60-cell line growth inhibition assay: MALME-3M; type: cell-based; conditions: Homo sapiens, Malme-3M
SK-MEL-2 = assay: NCI 60-cell line growth inhibition assay: SK-MEL-2; type: cell-based; conditions: Homo sapiens
SK-MEL-28 = assay: NCI 60-cell line growth inhibition assay: SK-MEL-28; type: cell-based; conditions: Homo sapiens, Melanoma
From the text: as §1

UACC-257 = assay: NCI 60-cell line growth inhibition assay: UACC-257; type: cell-based; conditions: Homo sapiens
HOP-62 = assay: NCI 60-cell line growth inhibition assay: HOP-62; type: cell-based; conditions: Homo sapiens
NCI-H23 = type: cell-based; conditions: Homo sapiens
OVCAR-3 = assay: NCI 60-cell line growth inhibition assay: OVCAR-3; type: cell-based; conditions: Homo sapiens
OVCAR-4 = assay: NCI 60-cell line growth inhibition assay: OVCAR-4; type: cell-based; conditions: Homo sapiens
OVCAR-5 = assay: NCI 60-cell line growth inhibition assay: OVCAR-5; type: cell-based; conditions: Homo sapiens
RXF 393 = assay: NCI 60-cell line growth inhibition assay: RXF 393; type: cell-based; conditions: Homo sapiens
UO-31 = assay: NCI 60-cell line growth inhibition assay: UO-31; type: cell-based; conditions: Homo sapiens
HL-60(TB) = assay: cells; type: cell-based; conditions: Homo sapiens, Leukemia
K-562 = assay: NCI 60-cell line growth inhibition assay: K-562; type: cell-based; conditions: Homo sapiens, K562
NCI-H226 = type: cell-based; conditions: Homo sapiens, Non-Small Cell Lung
From the text: as §1

SR = assay: NCI 60-cell line growth inhibition assay: SR; type: cell-based; conditions: Homo sapiens, Leukemia
From the text: as §1

[1] = Homo sapiens, Leukemia, RPMI-8226

| Structure (SMILES) | GI50 (HeLa S-3 cells) | GI50 (NCI/ADR-RES) | GI50 (T-47D) | GI50 (SF-539) | GI50 (SNB-19) | GI50 (SNB-75) | GI50 (SW-620) | GI50 (RPMI-8226; [1]) | GI50 (M14) | GI50 (MALME-3M) | GI50 (SK-MEL-2) | GI50 (SK-MEL-28) | GI50 (UACC-257) | GI50 (HOP-62) | GI50 (NCI-H23) | GI50 (OVCAR-3) | GI50 (OVCAR-4) | GI50 (OVCAR-5) | GI50 (RXF 393) | GI50 (HL-60(TB)) | other results |
| --- | --- | --- | --- | --- | --- | --- | --- | --- | --- | --- | --- | --- | --- | --- | --- | --- | --- | --- | --- | --- | --- |
| CC[C@]1(O)C[C@H]2CN(CCc3c([nH]c4ccc(C#Cc5ccccc5)cc34)[C@@](C(=O)OC)(c3cc4c(cc3OC)N(C)[C@H]3[C@@](O)(C(=O)OC)[C@H](OC(C)=O)[C@]5(CC)C=CCN6CC[C@]43[C@@H]65)C2)C1 [Example 19, 12′-(2-phenylethynyl) vinblastine] | > 1000 nM | 1440 nM | 4750 nM | 1790 nM | 1790 nM | 530 nM | 1770 nM | 252 nM | 260 nM | 254 nM | 2290 nM | 1270 nM | 46000 nM | 571 nM | 541 nM | 207 nM | 1550 nM | 1780 nM | 619 nM | – | GI50 (BT-549): 1890 nM; GI50 (UO-31): 2200 nM |
| CCC1=C[C@H]2CN(CCc3c([nH]c4ccc(Br)cc34)[C@@](C(=O)OC)(c3cc4c(cc3OC)N(C)[C@H]3[C@@](O)(C(=O)OC)[C@H](OC(C)=O)[C@]5(CC)C=CCN6CC[C@]43[C@@H]65)C2)C1 [Example 97, 12′-bromoanhydro vinblastine] | 30 nM | 77.9 nM | 19400 nM | < 10 nM | < 10 nM | 12200 nM | < 10 nM | < 10 nM | < 10 nM | 1420 nM | – | 3310 nM | 3950 nM | < 10 nM | 325 nM | < 10 nM | – | 12.4 nM | – | < 10 nM | GI50 (K-562): < 10 nM; GI50 (RPMI-8226; Renal, RPMI-8226 (last line of Table 4, repeats the Leukemia line)): < 10 nM; GI50 (NCI-H226): < 10 nM |
| CCCC(=O)/C=C/c1ccc2[nH]c3c(c2c1)CCN1C[C@H](C[C@@](O)(CC)C1)C[C@]3(C(=O)OC)c1cc2c(cc1OC)N(C)[C@H]1[C@@](O)(C(=O)OC)[C@H](OC(C)=O)[C@]3(CC)C=CCN4CC[C@]21[C@@H]43 [Example 29, 12′-(3-oxohex-1-enyl)vinblastine] | 515 nM | 18100 nM | – | 21 nM | < 10 nM | – | 1300 nM | 14.1 nM | < 10 nM | – | 9770 nM | – | 19300 nM | < 10 nM | – | 59.7 nM | 21.1 nM | – | 268 nM | 244 nM | GI50 (K-562): < 10 nM; GI50 (SR): 396 nM; GI50 (NCI-H226): < 10 nM |
